# Data from US12599560B2, “Lipids and lipid nanoparticle formulations” (Longuide Biopharma Corporation, priority 2023, dated 2026).
# Key:
# [1] = Nucleic acid encapsulation efficiency by fluorescence (RiboGreen); format: physicochemical
# Protocol: The nucleic acid encapsulation rate of the nucleic acids lipid nanoparticle formulations obtained in steps 6, 7, and 8 can be determined by fluorescence methods, such as using the Quant-iT™ RiboGreen RNA Quantification Kit (Thermo Fisher Scientific). Take the RiboGreen RNA Quantification Kit as an example: Configure the low-range working solution and mRNA standard solution according to the instructions. Take 3 μL of the nucleic acid lipid nanoparticle solution obtained in step 6, add 297 μL of the Tris-EDTA buffer (TE buffer) provided with the kit, mix well, and then suck up 100 μL of it into the black-bottomed ninety-six-well plate, and then add 100 μL of the RiboGreen low-range detection working solution. Add 100 μL of different concentrations of mRNA standard solution into the black bottom 96-well plate, and add 100 μL of RiboGreen low-range detection working solution. After gently blowing and mixing well, incubate for 5 minutes away from light, and then immediately detect and record the fluorescence signal intensity using a multifunctional enzyme labeling instrument (BMG LABTECH, FLUOstar Omega). The free mRNA content not encapsulated by the lipid nanoparticles was calculated by standard curve fitting and calculation, and then divided by the total amount of mRNA in the wells detected to find the nucleic acid encapsulation rate of this nucleic acid lipid nanoparticle preparation.
# A549 cells = test: Cytotoxicity assay (CCK-8), A549; format: cell-based
# Protocol: A549 cells were digested and collected the day before treatment and the cell concentration was adjusted to 2*10^5 cells/mL, 200 μL cell culture medium with a concentration of 2*10^5 cells/mL was added to the 96-well plate, resulting in approximately 4*10^4 cells per well in the 96-well plate. Digested and collected DC2.4 cells and adjusted the cell concentration to 1*10^5 cells/mL, added 200 μL cell culture medium with a concentration of 1*10^5 cells/mL to the 96-well plate, so that the number of cells per well in the 96-well plate is approximately 2*10^4. The cells were incubated in a cell culture incubator (Esco Micro Pte Ltd, Singapore, CLM-170B-8-NF) at 37° C. 5% CO2 for 24 h.
# On the day of cell treatment, the medium (Thermo Fisher Scientific) was aspirated from the 96-well plate, 200 μL of PBS was added to each well to rinse the cells and then the PBS (Thermo Fisher Scientific) was removed, and 180 μL of opti-MEM (Thermo Fisher Scientific) was added to each well of the treatment group.
# Different volumes of the preparation were taken and diluted by adding the buffer used for the preparation or the buffer used for dialysis, and four dosing concentrations were prepared for each preparation, and 20 μL of the diluted nanopreparation was added to each well of a 96-well plate (3 replicate wells for each concentration), and the dosing concentrations of the preparation were about 50 ng mRNA/well, 100 ng mRNA/well, 200 ng mRNA/well, and 300 ng mRNA/well, respectively.
# The 96-well cell culture plate was placed in a cell culture incubator and incubated at 37° C. 5% CO2 for 4 h. The medium was sucked up, and 200 μL of DMEM complete medium was added to each well and incubated for 20 h for detection.
# Diluted CCK-8 detection reagent (Shanghai Beyotime Biotechnology Co., Ltd.) masterbatch (900 μL complete medium+100 μL CCK-8 detection reagent) with DMEM complete medium at 9:1 to prepare CCK-8 working solution.
# Take out the 96-well cell culture plate and removed the supernatant. Before detection, the 96-well plate was added with 100 μL CCK-8 working solution, incubated in the cell culture incubator at 37° C. 5% CO2 for 2 h, and analyzed by plate reader. The cell viability was calculated to reflect the cytotoxicity.
# [2] = Particle size and PDI by dynamic light scattering; format: physicochemical; conditions: Table 2; for Particle size (nm): LNP formulation with mRNA; for PDI: polydispersity value
# In short: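 Lipid nanoparticle solution (about 0.04 mg/mL mRNA) diluted in ultrapure water and particle size measured by dynamic light scattering on a Malvern instrument. Sample then further diluted with water for potential measurement.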
# mice = test: In vivo delivery of FLuc-mRNA lipid nanoparticle preparations in mice (IVIS imaging); parameters: In vivo IVIS / In vivo IVIS (liver) / In vivo IVIS (spleen): unit not given here
# In short: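 FLuc-mRNA LNPs given intramuscularly into thigh rectus femoris or intravenously via tail vein, about 75 μL per mouse, 3 mice. D-Luciferin (200 μL, 15 mg/mL) injected i.p. 10–15 min before IVIS imaging at set times after dosing.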
# [3] = Potential characterization of nanoparticle preparations; format: physicochemical
# Protocol: 20 μL of the nucleic acid lipid nanoparticle solution (containing about 0.04 mg/mL mRNA) was taken and added with 780 μL of ultrapure water, used a pipette tip to gently blow and mix, and the potential of the nanopreparation was detected by Malvern particle sizer (model ZEN3700). 27.5 μL nucleic acid lipid nanoparticle solution (containing about 0.04 mg/mL mRNA) was taken and added with 200 μL ultrapure water. A pipette tip was used to gently blow the sample and mix well. The particle size of the nanopreparation was detected by Malvern Dynamic Light Scattering Instrument (Malvern Instruments Ltd., ZEN3700, UK). After the detection, the sample was recovered to an EP tube, and 600 μL of ultrapure water was added, gently blown with a pipette tip, and the potential of the nanopreparation was measured by a Malvern particle size meter.
# [4] = formulation No. 1, molar ratio 1.50:20:33.50:45.00
# [5] = formulation No. 2, molar ratio 1.50:11.50:38.50:48.50
# [6] = molar ratio 1.50:11.50:38.50:48.50, N/P 24
# [7] = molar ratio 1.50:20.00:33.50:45.00, N/P 40
# [8] = molar ratio 1.71:12.98:45.31:40.00, N/P 40
smiles,measurement,setting,value
CCCCCCCCCCCCOC(=O)C(O)CN(CCCN1CCN(CCCN(CC(O)C(=O)OCCCCCCCCCCCC)CC(O)C(=O)OCCCCCCCCCCCC)CC1)CC(O)C(=O)OCCCCCCCCCCCC (centres unmarked) [Compound L0191],encapsulation efficiency (in words),[1]; all tested formulations,high
same,encapsulation efficiency,[1]; [4],96.26%
same,encapsulation efficiency,[1]; [5],97.92%
same,cellular toxicity (in words),"A549 cells; all tested formulations, even at high doses, e.g., 300 ng/well",low to no cellular toxicity
same,A549 cellular tox (% cells alive),"A549 cells; formulation No. 1, 50 ng/well",103.42%
same,A549 cellular tox (% cells alive),"A549 cells; formulation No. 1, 100 ng/well",105.39%
same,A549 cellular tox (% cells alive),"A549 cells; formulation No. 1, 200 ng/well",103.90%
same,A549 cellular tox (% cells alive),"A549 cells; formulation No. 1, 300 ng/well",103.50%
same,A549 cellular tox (% cells alive),"A549 cells; formulation No. 2, 50 ng/well",103.82%
same,A549 cellular tox (% cells alive),"A549 cells; formulation No. 2, 100 ng/well",105.86%
same,A549 cellular tox (% cells alive),"A549 cells; formulation No. 2, 200 ng/well",109.06%
same,A549 cellular tox (% cells alive),"A549 cells; formulation No. 2, 300 ng/well",104.35%
same,Particle size (nm),[2]; [6],75.33 ± 0.78 nm
same,Particle size (nm),[2]; [7],70.87 ± 0.35 nm
same,Particle size (nm),[2]; [8],92.00 ± 0.39 nm
same,PDI,[2]; [6],0.10 ± 0.01
same,PDI,[2]; [7],0.17 ± 0.01
same,PDI,[2]; [8],0.15 ± 0.02
same,In vivo IVIS,"mice; Table 2, IM, whole body scan",8.97 × 10^7
same,In vivo IVIS (liver),"mice; Table 2, IV, liver",2.77 × 10^8
same,In vivo IVIS (spleen),"mice; Table 2, IV, spleen",1.03 × 10^8
same,In vivo IVIS,"mice; Table 4, IM",2.12 × 10^7
same,In vivo IVIS,"mice; Table 4, IV",9.64 × 10^8
same,in vivo delivery efficiency as compared to the benchmark compound SM102,"mice; certain formulations, Table 2",superior in vivo delivery efficiency
same,Zeta potential,[3]; [4],11.30 ± 0.69
same,Zeta potential,[3]; [5],12.67 ± 0.61
